The values that follow come from US12630523B2, “Isoquinoline derivatives for use as antiviral and antitumour agents” (priority 2021, dated 2026).

Series [1] relates to SARS-CoV-2 isolate BetaCov/Belgium/GHB-03021/2020. The experiment in a line: microbe, parasite or virus in culture. The series is classed as cell-based. The settings on record: 1.25 μM (non-toxic compound concentration), n4; for inhibition at 1.25 µM: Severe acute respiratory syndrome coronavirus 2.
Series [2] deals with p38, JNK1, ERK1/2, PKC, or Src-like kinases. The settings on record: cited from earlier work.
Series [3] has as its system cell signaling molecules (4E-BP1, p70 S6 kinase, Akt, PTPN14, p53, PD-L1). The series is described as follows: Western blot of cell signaling molecules in CaSki cells. The note with it: CaSki, 6 h; order 10 μM VSP035, Torin 1, Torin 2, rapamycin, 5 μM VSP035, CGP 57380.
Series [4] concerns the target Plk3 (Homo sapiens, UniProt Q9H4B4). The note with it: cited from earlier work.
Series [5] can be described thus: Pharmacokinetics of VSP034 and VSP035 after oral administration of a liposomal formulation. The series is classed as in vivo, female Sprague-Dawley rats. The note with it: for AUC(0-inf) / CL/F / Cmax / MRT inf / Tmax / Vd/F / half-life: female, Sprague-Dawley, rat, in vivo, po, 100 mg/kg; for AUC(0-inf): AUC0-inf; for MRT inf: MRT0-inf; for Vd/F: Vz/F. The protocol: The pharmacokinetic parameters of VSP034 and VSP035 encapsulated as liposomal formulation were assessed after the administration of a single 100 mg/kg dose by oral gavage to 6 female Sprague-Dawley rats weighting 250 grams (+25 g). The animals were randomized into two experimental groups (Groups 1 and 2), each composed of 3 rats. Rats belonging to group 1 were administered with VSP034 and rats belonging to group 2 were administered with VSP035. Blood was collected at baseline and 15 min, 30 min, 1, 2, 4, 6, 8, and 24 hours after the oral gavage. The rats were sacrificed 24 hours after the dosing. Blood was collected at each timepoint from the caudal vein, with the exception of the last collection (24 hours), which was performed by intracardiac puncture at the moment of sacrifice under isoflurane anesthesia. The animals were weighted immediately before the dosing to assess the proper dose and carefully monitored during the experiment. They were kept in standard housing conditions, meeting the legal requirements for the correct housing of rodents for a period not exceeding the maximum experimental endpoints. Ad libitum access to water and food was allowed. […] Humane endpoints have not been reached. The pharmacokinetic analysis was performed using Microsoft Excel plug-in PK Solver. Pharmacokinetic parameters of two compounds are compared with the software GraphPad Prism ver. 8.0 by Student's t test for unpaired data. A p value <0.05 is considered statistically significant.
Analytical method: Compound analysis was performed following the bioanalytical method as in Test 13. In this study, carbamazepine was used as an internal standard.
Pharmacokinetic analysis: A pharmacokinetic analysis of VSP034 and VSP035 was performed using the Excel plug-in 2.0 PK Solver. The results have been fitted according to a non-compartmental modelling following extravascular administration. Concentration-vs-time curves for VSP034 and VSP035.
The main pharmacokinetic parameters (half-life, t1/2; time to maximum plasma concentration, Tmax; maximum plasma concentration, Cmax, AUC Extrapolated to Infinity, AUC0-inf; mean residence time, MRT; Apparent Volume of Distribution During Terminal Phase, Vz/F; and apparent oral clearance, CL/F) were calculated from the coefficients and exponents of the best-fits by using standard formulae.

The test system of series [6] is CaSki (ATCC CRM-CRL-1550). The series is described as follows: Monolayer assay using Sulphorhodamine B (SRB) staining, CaSki. It counts as cell-based. The settings on record: Homo sapiens, Ca-Ski, read-out: EC50 mean [nM]. On the procedure: Various cell culture cells grown as monolayers are harvested from exponential growing cultures after treatment with various OC compounds at different concentrations. For this depending on the cell line, 10.000 to 30.000 cells were plated in 96-well flat-bottom microtiter plates. After a 24 h recovery period to allow cells to resume exponential growth, supernatants are discarded and 100 μl of culture medium (eight control wells/plate) or culture medium with the test compound are added by a liquid handling robotic system (Microlab® Starlet, Hamilton) and treatment continued for 72 hrs. Compounds are applied at 9 concentrations and eight wells/concentration). At least three independent experiments are performed. For SRB staining, cells are fixed with SRB01 (Tab. 5) for 1 h at 4° C. (final concentration of TCA=10%) washed with a plate washer (Hydroflex, Tecan©) for five times with H2O; and stained with 100 μl of SRB02 at room temperature for 10 min following 4 washes in SRB03 and finally 100 μl of developer solution SRB04 for 5 minutes with shaking. Optical density is assessed using a plate-reader (Sunrise, Tecan©) at 540 nm.
Concentrations required for half maximal response of the compound for cell growth inhibition (EC50) is calculated by non-linear regression (log[conc. of inhibitor] versus response (% T/C)) using the analysis software GraphPad Prism®, Prism 5 for windows, version 5.01 (GraphPad Software Inc., CA).
For orientation: The SRB assay estimates cell density from bound dye.

Series [7] deals with patient derived SARS-2 Coronavirus (COVID19). The experiment in a line: Inhibition of Sars-CoV2 replication by RNA qPCR analysis in Vero E6 cells. The series is classed as cell-based, SARS-CoV-2. The note with it: 7.5 μM, supernatants 3 days after infection, n3. The protocol:
Vero E6 cells were pre-incubated with the compounds at a concentration of 7.5 μM. The cells were infected with a patient derived SARS-2 Coronavirus (COVID19). Cellular supernatants were collected 3 days after infection and centrifuged at 2000 rpm for 5 min to remove detached cells. Viral RNAs were extracted using a MagNA Pure 24 system (Roche, Germany). SARS-CoV-2 RNA genomes were quantified with the TIB MOLBIOL LightMix Assay SARS-CoV-2 RdRP RTqPCR assay kit with RNA Process Control PCR Kit (Roche). The PCR reaction setup was performed using a BRAND LHS laboratory robot to ensure quality. The amplification was performed with a LightCycler 480 II (Roche). Method used in FIG. 10.
SARV-CoV-2 antiviral activity by of VSP034 and VSP035 (n3; number of repeat of the assay at each condition). The results are shown in for DMSO (1), 7.5 μM VSP034 (2) and 7.5 μM VSP035 (3), y axis logarithmic scale. […] (FIG. 9)
For orientation: Real-time PCR tracks product formation cycle by cycle.

Chain of Plk3 (Q9H4B4 whole entry, species assumed): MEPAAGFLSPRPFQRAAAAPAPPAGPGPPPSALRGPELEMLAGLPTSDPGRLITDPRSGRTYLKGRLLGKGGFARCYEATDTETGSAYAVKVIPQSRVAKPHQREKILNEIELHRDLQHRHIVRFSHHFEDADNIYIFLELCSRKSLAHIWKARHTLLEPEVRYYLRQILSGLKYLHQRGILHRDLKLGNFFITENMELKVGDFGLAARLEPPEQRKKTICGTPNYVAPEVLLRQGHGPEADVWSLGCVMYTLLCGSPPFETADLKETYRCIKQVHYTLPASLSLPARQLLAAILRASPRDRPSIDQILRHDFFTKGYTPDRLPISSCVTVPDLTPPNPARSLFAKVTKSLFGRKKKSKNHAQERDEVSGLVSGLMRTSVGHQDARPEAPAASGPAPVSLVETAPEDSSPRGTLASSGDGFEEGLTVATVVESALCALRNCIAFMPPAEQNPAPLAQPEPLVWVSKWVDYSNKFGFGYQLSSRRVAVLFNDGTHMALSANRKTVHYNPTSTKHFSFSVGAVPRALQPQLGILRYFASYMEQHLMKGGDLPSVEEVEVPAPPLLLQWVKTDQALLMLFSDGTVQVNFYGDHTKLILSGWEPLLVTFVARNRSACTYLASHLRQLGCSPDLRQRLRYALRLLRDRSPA

As a reminder, the % Inhibition is the change of the read-out against control, counted positive when it falls. The low end stands for a response near the control, the high end for a response far below the control. Consider `Nc1ncnc2n[nH]c(Nc3ccc(F)cc3)c12` [CGP57380, reference compound], for which the “% Inhibition” value in series [1] is on record as 17.71%. Also, the “inhibitory activity against p38, JNK1, ERK1/2, PKC, or Src-like kinases” value in series [2] is reported as “μM, but has no inhibitory activity against”. In series [3], the “Phosphorylation of 4E-BP1 on Ser65 and the p70S6 kinase on Thr389” value is given as “inhibited or strongly reduced”.
One may read the inhibition as the relative decrease from the control value, in per cent. A higher inhibition goes with a strong effect. `COc1cc(OC)c(/C=C/S(=O)(=O)Cc2ccc(OC)c(NCC(=O)O)c2)c(OC)c1` [ON-01910.Na, reference compound] displayed an inhibition at 1.25 µM in series [1] of 51.4%. For the same compound, in series [4], the “activity to Plk3” value is “against Plk2 and no activity to Plk3”.
The term AUC(0-inf) denotes the area under the concentration-time curve extrapolated to infinity. Read a low AUC(0-inf) as low exposure. In general, CL/F refers to the apparent clearance, not corrected for the fraction that reaches the circulation. In general, Cmax refers to the highest concentration seen after dosing. In general, MRT inf refers to the average time that molecules of a dose stay in the body. Broadly, the Tmax is the time from dosing to the highest level. One may read the Vd/F as the volume of distribution divided by bioavailability. The term half-life denotes the time needed for the level to fall by half in the phase considered. Low values mean rapid decline, high ones slow decline. What is called EC50 is the midpoint of the concentration-response curve. In series [5] (Mean), `CN1CCC(CN2C(=O)c3ccccc3[C@@H](C(=O)Nc3cccc(N4CCN(C)CC4)c3)[C@@H]2c2ccc(C(F)(F)F)cc2)CC1` [VSP034, (3R,4R)-N-[3-(4-methylpiperazin-1-yl)phenyl]-2-[(1-methylpiperidin-4-yl)methyl]-1-oxo-3-[4-(trifluoromethyl)phenyl]-1,2,3,4-tetrahydroisoquinoline-4-carboxamide] gave an AUC(0-inf) of 529 ng·h/mL, an apparent clearance (CL/F) of 3.42 mL/min/kg, a Cmax of 89 ng/mL and a mean residence time (MRT inf) of 6.72 h. In addition, in series [5] (Mean), the time of peak concentration (Tmax) came out at 1.17 h and the Vd/F was 1.29 L/kg. For the same compound, in series [5] (Median), the area under the curve AUC(0-inf) was 613 ng·h/mL, the CL/F was 2.72 mL/min/kg, the peak concentration (Cmax) was determined as 87.9 ng/mL and the MRT inf was found to be 6.77 h. Also, in series [5] (Median), the time of peak concentration (Tmax) was determined as 1 h and the Vd/F came to 0.994 L/kg. The same compound showed a half-life in series [5] (t1/2, Mean) of 4.33 h. In series [5] (t1/2, Median), this compound had a half-life of 4.22 h. Further, in series [5] (single 100 mg/kg oral gavage, observed 24 hours), the “condition of the rats after administration of the liposomal formulation” value is reported as “did not show any sign of suffering or abnormal behavior”. Further, the EC50 in series [6] is 3590 nM. For the same compound, the “reduction of virus load as determined by the PCR assay” value in series [7] was “one order of magnitude”. Further, at 1.25 µM the inhibition in series [1] was 45.2%.
